Measurements: paper PMC3283556, “The Activities of Current Antimalarial Drugs on the Life Cycle Stages of Plasmodium: A Comparative Study with Human and Rodent Parasites” (PLoS Medicine, 2012)
Entries after “also recorded” stand apart in the source; their conditions may differ. Where two headings read alike, the source gives them in different places.

Tests used:
[1] = tested on: P. yoelii liver stage parasites (liver schizonts); assay: P. yoelii liver stage assay in HepG2 cells (EEF immunofluorescence); type: cell-based, Plasmodium yoelii; conditions: for IC50: Plasmodium yoelii
Method: (§1) 7.5×10^3 HepG2 cells in 50 µl of medium (1.5×10^5 cells/ml) were seeded in 384 well plates (Aurora 384 IQ-EB Black/Clear Plates) 20–26 h prior to the actual infection. 2 h prior to infection, 50 nl of compound in DMSO (0.1% final DMSO concentration per well) were transferred with a PinTool (GNF Systems) into the assay plates (10 µM final concentration). P. yoelii sporozoites were freshly dissected from infected A. stephensi mosquito salivary glands and filtered twice with a 40-µm strainer. The HepG2 cells were then infected with 8×10^3 sporozoites per well. After infection and 1-h incubation at 37°C, the cultures were washed, new media and compound added, and further incubated with 5-fold increased concentration of penicillin/streptomycin for 48 h at 37°C before exoerythrocytic forms (EEFs) quantification of infected cells by immunofluorescence.
After washing with 1×PBS and fixation of the cells with 4% paraformaldehyde solution (EMS), membranes were permeabilised with 0.5% Triton-X-100 (Thermo Fisher Scientific) and EEFs were stained using a mouse polyclonal serum raised against the Plasmodium heat shock protein 70 (HSP70), an Alexa goat antimouse IgG, Fca-specific DyLight 649 secondary antibody (Invitrogen), and the Hoechst 33342 nucleic acid dye (Invitrogen). Stained EEFs were then quantified using the Opera Confocal High Content Screening system (PerkinElmer). Images were collected using a 20× magnification at a binning of 2 using a 365 Xeon arc lamp illumination to detect the nuclei and 635-nm laser line to excite DyLight649.
(§2) High-content imaging of infected HepG2-CD81 cells was performed as described in Meister et al.. Wells were analysed using a custom Acapella (PerkinElmer) script parameterized for this assay. In brief, images from fields inside the well were first discarded as out of focus when the intensity in the nuclear area was too low. Then hepatic cells were counted by detecting the nuclei labelled with Hoechst 33342 and parasites were segmented using the HSP70 immuno-labelling. Morphology-based (e.g., area, roundness) and intensity-based features were calculated for each object detected including the hepatocyte nuclei and the parasites. Parasitemia was set as the ratio between parasite number (Alexa fluor positive) and the hepatocyte nuclei count, determined at the same time.
(§3) When an infected mosquito bites a host, ∼100 sporozoites may be injected into the dermis from where they rapidly invade liver cells,[33]. This infective step represents the second bottleneck during transmission and therefore another potentially vulnerable point for intervention. In the absence of a practical liver stage assay measuring the formation of P. falciparum/P. vivax liver schizonts, an equivalent assay was developed in P. yoelii and used to assess the activity of the collection of molecules against this specific stage. Specifically, P. yoelii sporozoites were dissected from the salivary glands of infected mosquitoes and were allowed to invade human hepatocarcinoma cells expressing the CD81 protein. The development of the liver schizonts was monitored by immunofluorescence staining using an HSP70 antibody specific to the parasite (Figure 4A).
Figure 4 Validation and results of anti-infectives tested against P. yoelii liver stage parasites. (A) Opera-generated images from a time point experiment using a 20× objective lens. P. yoelii parasites (red) were visualized using a mouse polyclonal HSP70 antibody, and the HepG2 cells (green) were stained with Hoechst 33342 nucleic acid dye. […] (B) A dose response plot with atovaquone from data generated from the Opera imaging system. The median areas of compound-treated parasites were compared to untreated DMSO controls to determine the degree of inhibition.

HepG2 cells = assay: Growth retardation of HepG2 cells; conditions: for IC50: Homo sapiens, HepG2, read-out: IC50 HepG2; for CI (cytotoxicity index): IC50 HepG2 compared to IC50 parasite
Method: as §1, §2, §3

[2] = tested on: P. falciparum mature gametocytes / male gamete exflagellation; assay: P. falciparum exflagellation assay; type: cell-based, Plasmodium falciparum; conditions: for inhibition at 10 µM: Plasmodium falciparum
Method: After 24 h, exflagellation was triggered by a temperature decrease to ∼21°C and observed 20 min later under the microscope. Highly motile exflagellation centres were recorded for ∼50–150 adjacent fields of view and reported per 10,000 RBCs.
(§4) (A) Assays examined exflagellation (P. falciparum), ookinete formation (P. berghei), or oocyst formation (P. falciparum). All antimalarials were screened at 10 µM. (B) The biological content of the in vitro P. berghei ookinete assay spans gamete formation, fertilization, zygote development, and ookinete formation. […] (D) The in vitro P. falciparum exflagellation assay exposes mature gametocytes to antimalarials for 24 h before triggering exflagellation. […] All experiments in triplicate. (E) The in vivo P. falciparum oocyst assay differs from the P. berghei oocyst assay in that mature gametocytes were exposed to the antimalarials in culture for 24 h before feeding to mosquitoes.

[3] = tested on: P. berghei ookinete formation; assay: P. berghei ookinete development assay; type: cell-based, Plasmodium berghei; conditions: for effect on ookinete formation: 10 µM; for IC50 / inhibition at 10 µM: Plasmodium berghei; for IC50: read-out: IC50 ookinete formation; for inhibition at 10 µM: read-out: Inhibition at 10 μM (ookinete, Figure 5)
Method: Compounds and P. berghei gametocyte-infected blood were dispensed in a 96-well plate containing ookinete medium. After 24 h at 19°C, Giemsa-stained ookinetes were counted under the microscope (×40) as previously described,[28].
as §4, with “Figure 3 The transmission-blocking potential of selected antimalarials in three bioassays that cover different phases of Plasmodium vector stage development. (A)” for “(A)”, “formation. Ookinete formation was insensitive to most of the antimalarials tested.” for “formation.”, “mosquitoes. […] NPC1161-B, lumefantrine, halofantrine, and mefloquine +RS isomer were also active. (n = 4–61 observations; average ± standard error of the mean [SEM]).” for “mosquitoes.”

[4] = tested on: P. berghei oocyst formation; assay: Standard membrane feed assay, P. berghei oocysts in A. stephensi; type: in vivo, Plasmodium berghei; conditions: 10 µM
Method: (§5) Membrane feeds were performed as described previously. Briefly, PbGFPcon-infected mouse blood was mixed with compounds, immediately placed into membrane feeders (39°C) and offered for 30 min to 80–100 overnight-starved A. stephensi (SDA 500 strain). After 7–9 d at 19°C/80%RH, mosquito midguts were dissected out. Midguts were fixed with paraformaldehyde and oocyst number was determined microscopically by semi-automated analysis as previously described.
Supplementary file pmed.1001169.s001.tif: Figure S1 The transmission-blocking potential of selected compounds against P. berghei in standard membrane feeding assays. All antimalarials were screened at 10 µM in triplicate in independent experiments. The biological content of this assay spans gamete formation through to occyst development all within the gut of the mosquito. […] (TIF) Click here for additional data file.

[5] = tested on: P. falciparum asexual blood stage parasites (strains NF54, D6, K1, W2, 7G8, TM90C2A, V1/S); assay: [3H]-hypoxanthine incorporation growth inhibition assay, asexual blood stage; type: cell-based, Plasmodium falciparum; conditions: for IC50: Plasmodium falciparum
Method: In vitro antimalarial activity was measured using the [^3H]-hypoxanthine incorporation assay with various strains of P. falciparum obtained from MR4. Results were expressed as the concentration resulting in 50% inhibition (IC50).
The half-maximal inhibitory concentrations (IC50) were determined for each molecule (Table S2).
Figure 2 The potencies of selected antimalarials against asexual blood stages. Main classes of antimalarials were tested against the blood stage of seven Plasmodium falciparum strains in the [^3H]hypoxanthine incorporation assay as described in Vennerstrom et al.. The strains tested here (obtained from MR4) were two drug-sensitive strains NF54 and D6 and five drug-resistant strains: K1, resistant to chloroquine (CQ) and pyrimethamine (PYR), origin Thailand, carries mutations in genes pfmdr1, pfcrt, pfdhfr, pfdhps; W2, resistant to CQ, PYR, quinine, cycloguanil, and sulfadoxine, origin Vietnam; 7G8, resistant to CQ and PYR, origin Brazil; TM90C2A, resistant to CQ, PYR, and MFQ, origin Thailand; and V1/S, resistant to CQ, PYR and cycloguanil, origin Vietnam. Results are expressed as the concentration resulting in 50% growth inhibition (IC50).Values are means of ≥3 independent experiments. (A) Endoperoxides. (B) 4-AQs. (C) 8-AQs and amino alcohols. (D) Antifolates, antibiotics, and others.

Plasmodium oocysts = assay: Oocyst development / sporogony, Plasmodium species not stated at the place; type: in vivo; conditions: Plasmodium; 10 μM; box linked to oocysts; read-out: Inhibition at 10 μM (oocysts, Figure 5)
Method: as §5
Gametocyte cultures were produced according to the same protocol as the Pf exflagellation assay. Pooled gametocyte cultures were evenly divided between compounds in fresh medium and incubated at 37°C for 24 h. The parasite pellets were then resuspended in fresh RBCs and human serum treated with the compounds to a 50% haematocrit and immediately fed to mosquitoes as described above and then maintained at 27°C/60%RH for 10–12 d before dissection and counting. […]

[6] = HepG2, read-out: IC50 (liver schizont, Figure 5)
[7] = HepG2, read-out: IC50 liver stage
[8] = 10 µM, 24 h exposure of mature gametocytes
[9] = read-out: Inhibition at 10 μM (gametocytes/exflagellation, Figure 5)
[10] = HepG2, box linked to liver schizont, read-out: IC50 (liver schizont, Figure 5)

Compound: C=C(NC(=O)C(=C)NC(=O)c1csc(C2=N[C@@H]3c4csc(n4)[C@H]4NC(=O)c5csc(n5)[C@H]([C@](C)(O)[C@@H](C)O)NC(=O)[C@H]5CSC(=N5)/C(=C/C)NC(=O)[C@H]([C@@H](C)O)NC(=O)c5csc(n5)[C@]3(CC2)NC(=O)[C@H](C)NC(=O)C(=C)NC(=O)[C@H](C)NC(=O)[C@H]([C@@H](C)CC)N[C@@H]2C=Cc3c([C@H](C)O)cc(nc3[C@H]2O)C(=O)O[C@@H]4C)n1)C(N)=O [thiostrepton]
- IC50 [1, 6]: < 1000 nM
- IC50 ([1]; HepG2, read-out: IC50 Parasite): 180 ± 50 nM
- IC50 [1, 7]: < 200 nM
- potency range against liver stages ([1]; dose response): submicromolar potencies
- effect on growth of HepG2-CD81 cells (HepG2 cells): retarded the growth of HepG2-CD81 cells
- IC50 (HepG2 cells): 180 ± 20 nM
- CI (cytotoxicity index) (HepG2 cells): 1.0
- effect on exflagellation (words) [2, 8]: Inhibition of exflagellation
- inhibition at 10 µM ([2]; 24 h, read-out: inhibition of exflagellation): > 80%
- inhibition at 10 µM [2, 9]: > 60%
- effect on ookinete formation [3]: strongly inhibited ookinete formation
- IC50 [3]: 8000 nM
- inhibition at 10 µM [3]: > 80%

Compound: O=CN(O)CCCP(=O)(O)O [fosmidomycin]
- effect on ookinete formation [3]: enhancement of ookinete formation that was not statistically significant

Compound: C[C@@H]1C[C@@H]([C@H](O)CC2CC(=O)NC(=O)C2)C(=O)[C@@H](C)C1 [cycloheximide]
- IC50 [1, 6]: < 1000 nM
- IC50 ([1]; HepG2, read-out: IC50 Parasite): 150 ± 10 nM
- IC50 [1, 7]: < 200 nM
- effect on growth of HepG2-CD81 cells (HepG2 cells): retarded the growth of HepG2-CD81 cells
- IC50 (HepG2 cells): 920 ± 290 nM
- CI (cytotoxicity index) (HepG2 cells): 6.13
- effect on exflagellation (words) [2, 8]: inhibited exflagellation totally; also recorded: Inhibition of exflagellation
- inhibition at 10 µM [2, 9]: > 60%
- effect on ookinete formation [3]: strongly inhibited ookinete formation
- IC50 [3]: 25 nM
- inhibition at 10 µM [3]: > 80%
- transmission-blocking effect on P. berghei oocysts (words) [4]: most notable transmission-blocking activity

Compound: CCCCC[C@@H]1CN[C@H](C(=O)N[C@@H]([C@H]2O[C@H](SC)[C@H](O)[C@@H](O)[C@H]2O)[C@H](C)Cl)C1 [cis-mirincamycin]
- effect on ookinete formation [3]: enhancement of ookinete formation that was not statistically significant

Compound: COc1cc(C)c2c(Oc3cccc(C(F)(F)F)c3)c(OC)cc(NC(C)CCCN)c2n1 (centres unmarked) [tafenoquine]
- IC50 ([5]; strain 7G8): ~50 nM
- IC50 ([5]; strain NF54): ~500 nM
- effect on ookinete formation [3]: enhancement of ookinete formation that was not statistically significant

Compound: CCc1nc(N)nc(N)c1-c1ccc(Cl)cc1 [pyrimethamine]
- IC50 ([5]; Erythrocyte, box linked to blood stage schizont, read-out: IC50 (erythrocyte schizont, Figure 5)): < 20 nM
- resistance / retention of potency against resistant strains ([5]; drug-resistant strains): Resistance to pyrimethamine was verified in all drug-resistant strains
- IC50 [1, 10]: < 1000 nM
- IC50 ([1]; HepG2, dose response, median parasite area (Opera), read-out: IC50 liver stage): < 10 nM
- inhibition at 10 µM ([2]; read-out: inhibition of exflagellation, 10 µM, 24 h exposure of mature gametocytes): > 80%
- effect on ookinete formation [3]: strongly inhibited ookinete formation
- inhibition at 10 µM ([3]; 10 μM, box linked to ookinete): > 80%
- transmission-blocking effect on P. berghei oocysts (words) [4]: most notable transmission-blocking activity
- inhibition at 10 µM (Plasmodium oocysts): > 90%

Compound: CC(C)(N)CNC(=O)C[C@H]1CC[C@]2(CC1)OO[C@]1(O2)C2CC3CC(C2)CC1C3 [OZ277]
- IC50 ([1]; HepG2, development of P. yoelii liver schizonts following infection of HepG2 cells, read-out: IC50 Parasite): 1690 ± 1220 nM
- IC50 (HepG2 cells): 7400 ± 5130 nM
- CI (cytotoxicity index) (HepG2 cells): 4.38
- effect on exflagellation (words) [2, 8]: inhibited exflagellation totally
- inhibition at 10 µM ([2]; 10 μM, box linked to gametocytes/exflagellation, read-out: Inhibition at 10 μM (gametocytes/exflagellation, Figure 5)): > 60%
- inhibition at 10 µM (Plasmodium oocysts): > 90%

Compound: C[C@H]1[C@@H](O)O[C@@H]2O[C@@]3(C)CC[C@H]4[C@H](C)CC[C@@H]1[C@@]24OO3 [DHA, dihydroartemisinin]
- IC50 [1, 10]: < 1000 nM
- inhibition at 10 µM (Plasmodium oocysts): > 90%
